Here are results for 15 compounds from US20230140430A1, “1H-PYRAZOLO[4,3-d]PYRIMIDINE COMPOUNDS AS TOLL-LIKE RECEPTOR 7 (TLR7) AGONISTS” (BRISTOL-MYERS SQUIBB COMPANY, priority 2020, published 2023).

For one experiment, the system named is CD69. Kind of experiment: Induction of CD69 in human whole blood. The format is cell-based. The protocol: The induction of Type I interferon (IFN) MX-1 genes and the B-cell activation marker CD69 are downstream events that occur upon activation of the TLR7 pathway. The following is a human whole blood assay that measures their induction in response to a TLR7 agonist.
Heparinized human whole blood was harvested from human subjects and treated with test TLR7 agonist compounds at 1 mM. The blood was diluted with RPMI 1640 media and Echo was used to predot 10 nL per well giving a final concentration of 1 uM (10 nL in 10 uL of blood). After mixing on a shaker for 30 sec, the plates were covered and placed in a 37° C. chamber for o/n=17 hrs. Fixing/lysis buffer was prepared (5×->1× in H2O, warm at 37° C.; Cat #BD 558049) and kept the perm buffer (on ice) for later use.
For surface markers staining (CD69): prepared surface Abs: 0.045 ul hCD14-FITC (ThermoFisher Cat #MHCD1401)+0.6 ul hCD19-ef450 (ThermoFisher Cat #48-0198-42)+1.5 ul hCD69-PE (cat #BD555531)+0.855 ul FACS buffer. Added 3 ul/well, spin1000 rpm for 1 min and mixed on shaker for 30 sec, put on ice for 30 mins. Stop stimulation after 30 min with 70 uL of prewarmed 1× fix/lysis buffer and use Feliex mate to resuspend (15 times, change tips for each plate) and incubate at 37 C for 10 min.
Centrifuge at 2000 rpm for 5 min aspirate with HCS plate washer, mix on shaker for 30 sec and then wash with 70 uL in dPBS and pelleted 2×s (2000 rpm for 5 min) and 50 ul wash in FACS buffer pelleted 1×s (2000 rpm for 5 min). Mix on shaker for 30 sec. For Intracellular markers staining (MX-1): Add 50 ul of BD Perm buffer III and mix on shaker for 30 sec. Incubate on ice for 30 minutes (in the dark). Wash with 50 uL of FACS buffer 2× (spin @2300 rpm×5 min after perm) followed by mixing on shaker for 30 sec. Resuspended in 20 ul of FACS buffer containing MX1 antibody ( )(4812)-Alexa 647: Novus Biologicals #NBP2-43704AF647) 20 ul FACS bf+0.8 ul hlgG+0.04 ul MX-1. Spin 1000 rpm for 1 min, mix on shaker for 30se and the samples were incubated at RT in the dark for 45 minutes followed by washing 2×FACS buffer (spin @2300 rpm×5 min after perm). Resuspend 20 ul (35 uL total per well) of FACS buffer and cover with foil and place in 4° C. to read the following day. Plates were read on iQuePlus. The results were loaded into toolset and […] curves are generated in curve master. The y-axis 100% is set to 1 uM of resiquimod.

In a further experiment the target is T1, human TLR7 (Homo sapiens, UniProt Q9NYK1).
T1 construct: host or cells: HEK-Blue TLR7 cells (engineered human embryonic kidney cells)
T1 sequence (Q9NYK1 27-1049): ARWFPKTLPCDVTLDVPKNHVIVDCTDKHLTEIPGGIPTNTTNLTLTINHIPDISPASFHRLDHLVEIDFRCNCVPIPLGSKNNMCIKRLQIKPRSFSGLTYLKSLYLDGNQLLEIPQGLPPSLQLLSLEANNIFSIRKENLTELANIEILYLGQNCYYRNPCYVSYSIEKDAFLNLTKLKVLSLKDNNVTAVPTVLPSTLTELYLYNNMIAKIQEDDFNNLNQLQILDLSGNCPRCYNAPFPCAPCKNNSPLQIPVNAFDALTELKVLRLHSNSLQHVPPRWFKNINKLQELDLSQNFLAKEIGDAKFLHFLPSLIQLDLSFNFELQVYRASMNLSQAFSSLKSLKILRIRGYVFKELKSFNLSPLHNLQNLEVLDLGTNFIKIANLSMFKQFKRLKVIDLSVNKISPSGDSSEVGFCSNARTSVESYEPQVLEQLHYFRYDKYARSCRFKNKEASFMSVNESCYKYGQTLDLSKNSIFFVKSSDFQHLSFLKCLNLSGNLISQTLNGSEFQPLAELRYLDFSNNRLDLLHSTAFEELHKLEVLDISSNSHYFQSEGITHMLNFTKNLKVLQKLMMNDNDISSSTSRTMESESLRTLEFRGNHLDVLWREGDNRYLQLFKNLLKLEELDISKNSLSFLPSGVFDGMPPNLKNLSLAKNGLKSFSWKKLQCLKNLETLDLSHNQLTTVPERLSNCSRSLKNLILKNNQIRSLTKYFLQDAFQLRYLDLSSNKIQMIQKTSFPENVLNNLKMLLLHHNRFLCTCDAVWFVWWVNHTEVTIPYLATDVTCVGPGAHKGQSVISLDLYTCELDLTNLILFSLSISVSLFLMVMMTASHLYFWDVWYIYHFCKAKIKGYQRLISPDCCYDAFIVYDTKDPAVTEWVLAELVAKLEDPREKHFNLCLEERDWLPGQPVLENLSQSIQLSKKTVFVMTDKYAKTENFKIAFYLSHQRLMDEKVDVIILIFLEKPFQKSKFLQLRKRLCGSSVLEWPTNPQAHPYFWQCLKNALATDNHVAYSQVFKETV
Kind of experiment: Human TLR7 agonist activity assay (HEK-Blue TLR7 SEAP reporter). The class given is cell-based. Conditions: HEK-Blue TLR7 cells, 18 h treatment, average where assay was performed multiple times, read-out: hTLR7 Agonism EC50.

Setting [1] is: human whole blood, 17 hrs, CD69 surface staining, 100% set to 1 uM of resiquimod, average where assay was performed multiple times, read-out: hWB CD69 EC50.
Setting [2] is: Homo sapiens, 17 h, read-out: hWB CD69 EC50 (nM).

Where two headings read alike, the source gives them in different places.

Procedure for human TLR7: This procedure describes a method for assaying human TLR7 (hTLR7) agonist activity of the compounds disclosed in this specification.
HEK-Blue™ TLR7 cells were added to each well of a 384-well tissue-culture plate (15,000 cells per well) and incubated 16-18 h at 37° C., 5% CO2. Compounds (100 nl) were dispensed into wells containing the HEK-Blue™ TLR cells and the treated cells were incubated at 37° C., 5% CO2. After 18 h treatment ten microliters of freshly-prepared Quanti-Blue™ reagent (Invivogen) was added to each well, incubated for 30 min (37° C., 5% CO2) and SEAP levels measured using an Envision plate reader (OD=620 nm).

The EC50 is the midpoint of the concentration-response curve. On to `CCCCNc1nc(N)nc2c(C)nn(Cc3ccc(C(=O)N4CCNC(=O)C4)cc3OC)c12` [Compound 119, 4-(4-{[5-amino-7-(butylamino)-3-methyl-1H-pyrazolo[4,3-d]pyrimidin-1-yl]methyl}-3-methoxybenzoyl)piperazin-2-one], for which the results for the EC50 in the experiment with CD69 (setting [1]) and on human TLR7 were 332 nM and 968 nM, respectively.

`CCCCNc1nc(N)nc2cnn(Cc3ccc(C(=O)N4CCN(CCO)CC4)cc3OC(F)F)c12` [Compound 120, 2-[4-(4-{[5-amino-7-(butylamino)-1H-pyrazolo[4,3-d]pyrimidin-1-yl]methyl}-3-(difluoromethoxy)benzoyl)piperazin-1-yl]ethan-1-ol]: the EC50 worked out at 94.6 nM in the experiment with CD69 (setting [1]) and 1200 nM at human TLR7.

As to `CCCCNc1nc(N)nc2cnn(Cc3ccc(C(=O)NC4CCN(C)CC4)cc3OC3CC3)c12` [Compound 121, 4-{[5-amino-7-(butylamino)-1H-pyrazolo[4,3-d]pyrimidin-1-yl]methyl}-3-cyclopropoxy-N-(1-methylpiperidin-4-yl)benzamide], the concentration giving a half-maximal response (EC50) in the experiment with CD69 (setting [2]) is 99.1 nM; on human TLR7 it was 502 nM.

For `CCCCNc1nc(N)nc2cnn(Cc3ccc(C(=O)N4CCN(CCO)CC4)cc3OC3CC3)c12` [Compound 122, 2-[4-(4-{[5-amino-7-(butylamino)-1H-pyrazolo[4,3-d]pyrimidin-1-yl]methyl}-3-cyclopropoxybenzoyl)piperazin-1-yl]ethan-1-ol], the EC50 was found to be 340 nM with CD69 (setting [1]) and 1190 nM at human TLR7.

As to `CCC[C@@H](CCO)Nc1nc(N)nc2cnn(Cc3ccc(C(=O)N4CCN(CCO)CC4)cc3OC)c12` [Compound 123, (3S)-3-{[5-amino-1-({4-[4-(2-hydroxyethyl)piperazine-1-carbonyl]-2-methoxyphenyl}methyl)-1H-pyrazolo[4,3-d]pyrimidin-7-yl]amino}hexan-1-ol], the figures for the EC50 in the experiment on CD69 (setting [1]) and at human TLR7 were 71.9 nM and 115 nM, respectively.

Consider `CCC1CC(CNc2nc(N)nc3cnn(Cc4ccc(C(=O)NC5CCN(C)CC5)cc4OC)c23)C1` (stereo not drawn) [Compound 124, 4-[(5-amino-7-{[(3-ethylcyclobutyl)methyl]amino}-1H-pyrazolo[4,3-d]pyrimidin-1-yl)methyl]-3-methoxy-N-(1-methylpiperidin-4-yl)benzamide], for which the EC50 in the experiment with CD69 (setting [2]) is 95.4 nM; at human TLR7, 508 nM.

Turning to `CCC[C@@H](CCO)Nc1nc(N)nc2cnn(Cc3ccc(C(=O)NC4CCN(C)CC4)cc3OC)c12` [Compound 125, 4-[(5-amino-7-{[(3S)-1-hydroxyhexan-3-yl]amino}-1H-pyrazolo[4,3-d]pyrimidin-1-yl)methyl]-3-methoxy-N-(1-methylpiperidin-4-yl)benzamide], the EC50 in the experiment with CD69 (setting [2]) came to 332 nM; on human TLR7, 747 nM.

Turning to `CCC[C@@H](CO)Nc1nc(N)nc2cnn(Cc3ccc(C(=O)NC4CCN(C)CC4)cc3OC)c12` [Compound 126, 4-[(5-amino-7-{[(2S)-1-hydroxypentan-2-yl]amino}-1H-pyrazolo[4,3-d]pyrimidin-1-yl)methyl]-3-methoxy-N-(1-methylpiperidin-4-yl)benzamide], the EC50 in the experiment with CD69 (setting [2]) was found to be 326 nM; at human TLR7 it was 5000 nM.

Regarding `COc1cc(C(=O)N2CCN(CCO)CC2)ccc1Cn1ncc2nc(N)nc(NCc3cc(C)on3)c21` [Compound 127, 2-(4-{4-[(5-amino-7-{[(5-methyl-1,2-oxazo1-3-yl)methyl]amino}-1H-pyrazolo[4,3-d]pyrimidin-1-yl)methyl]-3-methoxybenzoyl}piperazin-1-yl)ethan-1-ol], the EC50 in the experiment on CD69 (setting [1]) was 173 nM; at human TLR7, 505 nM.

For the compound `CCC[C@@H](CCO)Nc1nc(N)nc2c(F)nn(Cc3ccc(C(=O)NC4CCN(C)CC4)cc3OC)c12` [Compound 128, 4-[(5-amino-3-fluoro-7-{[(3S)-1-hydroxyhexan-3-yl]amino}-1H-pyrazolo[4,3-d]pyrimidin-1-yl)methyl]-3-methoxy-N-(1-methylpiperidin-4-yl)benzamide], the EC50 with CD69 (setting [2]) came out at 772 nM; on human TLR7 it was 179 nM.

As for `COc1cc(C(=O)NC2CCN(C)CC2)ccc1Cn1ncc2nc(N)nc(NCc3cc(C)on3)c21` [Compound 129, 4-[(5-amino-7-{[(5-methyl-1,2-oxazo1-3-yl)methyl]amino}-1H-pyrazolo[4,3-d]pyrimidin-1-yl)methyl]-3-methoxy-N-(1-methylpiperidin-4-yl)benzamide], the EC50 stood at 67.7 nM in the experiment on CD69 (setting [2]) and 1240 nM on human TLR7.

Take `COc1cc(C(=O)N2CCN(C)CC2)ccc1Cn1ncc2nc(N)nc(NCc3cc(C)on3)c21` [Compound 130, 1-{[2-methoxy-4-(4-methylpiperazine-1-carbonyl)phenyl]methyl}-N7-[(5-methyl-1,2-oxazo1-3-yl)methyl]-1H-pyrazolo[4,3-d]pyrimidine-5,7-diamine]: the EC50 in the experiment on CD69 (setting [1]) was 15.8 nM; at human TLR7, 145 nM.

For the compound `COc1cc(C(=O)N2CCNC(=O)C2)ccc1Cn1ncc2nc(N)nc(NCc3cc(C)on3)c21` [Compound 131, 4-{4-[(5-amino-7-{[(5-methyl-1,2-oxazo1-3-yl)methyl]amino}-1H-pyrazolo[4,3-d]pyrimidin-1-yl)methyl]-3-methoxybenzoyl}piperazin-2-one], the values for the EC50 in the experiment on CD69 (setting [1]) and at human TLR7 were 363 nM and 2190 nM, respectively.

As for `COc1cc(C(=O)N2CCN(C)CC2)ccc1Cn1ncc2nc(N)nc(NCc3noc(C)n3)c21` [Compound 132, 1-{[2-methoxy-4-(4-methylpiperazine-1-carbonyl)phenyl]methyl}-N7-[(5-methyl-1,2,4-oxadiazo1-3-yl)methyl]-1H-pyrazolo[4,3-d]pyrimidine-5,7-diamine], the EC50 in the experiment on CD69 (setting [1]) was 10.9 nM; at human TLR7, 95.1 nM.

Take `COc1cc(C(=O)N2CCN(CCO)CC2)ccc1Cn1ncc2nc(N)nc(NCc3noc(C)n3)c21` [Compound 133, 2-(4-{4-[(5-amino-7-{[(5-methyl-1,2,4-oxadiazo1-3-yl)methyl]amino}-1H-pyrazolo[4,3-d]pyrimidin-1-yl)methyl]-3-methoxybenzoyl}piperazin-1-yl)ethan-1-ol]: the EC50 in the experiment with CD69 (setting [1]) amounted to 552 nM; at human TLR7, 1870 nM.
